Like-named read-outs stand apart in the source and are kept apart here.
Experiments:
[1] = Stability of organophosphates by differential scanning calorimetry (DSC); type: physicochemical; conditions: for Onset of Decomposition: DSC; for decomposition points as determined by differential scanning calorimetry: below the 160° C. minimum temperatures encountered during extrusion or injection molding
Protocol: The insect control devices of the present invention containing the insecticide in the coating composition may be prepared at much lower temperatures, as low as about 20° C. The greatly-reduced processing temperatures allow the incorporation of active ingredients which are thermally unstable at elevated temperature. Examples of insecticides which may now be incorporated in such devices are dimethoate, dibrom, and chlorfenvinphos, illustrated in Table I. The decomposition points of these insecticides, as determined by differential scanning calorimetry (DSC), is below the 160° C. minimum temperatures encountered during extrusion or injection molding of plasticized PVC, and as such, these compounds can now be effectively incorporated in the present devices for control insect pests.

[2] = test system: pyrethroid resistant female flies; type: in vivo
[3] = test system: Non-resistant strain (house flies); assay: Chamber screening evaluation of ear tags, % fly mortality, non-resistant strain; type: in vivo; conditions: positive control, petri dish 0.05%, 8640 min
Protocol: (§1) The ear tags are hung in a chamber covered with mesh cloth to keep the flies confined in the 12"×17"×9" space. Each chamber contains a cup of water and a supply of sugar and powdered milk.
(§2) At the start of the test, ~100 three to five day old house flies are placed in each chamber. The chambers are kept in a room with the temperature at 82° F. (27.8° C.). The flies are observed daily (except Saturday and Sunday) and mortality is recorded. At the termination of the study, the chambers are placed in a freezer overnight to kill the remaining flies, which are then counted. The percent mortality is calculated based on the number of flies that die during the observation period and the number of flies counted at the end of the study.

[4] = test system: Resistant strain (flucythrinate resistant house flies); assay: Chamber screening evaluation of ear tags, % fly mortality, resistant strain; type: in vivo; conditions: positive control, petri dish 0.05%, 8640 min
Protocol: as §1, §2

[5] = pyrethroid resistant female flies

SMILES: COP(=O)(OC)O/C(=C\Cl)c1cc(Cl)c(Cl)cc1Cl [Tetrachlorvinphos]
- Onset of Decomposition [1]: 190 °C

SMILES: COP(=S)(OC)Oc1ccc([N+](=O)[O-])cc1Cl [Dicapthon]
- LD50 [2, 5]: 0.2649-0.6539 Micrograms/pyrethroid resistan

SMILES: CC(C)[C@H](C(=O)OC(C#N)c1cccc(Oc2ccccc2)c1)c1ccc(OC(F)F)cc1 (mixture of isomers) [flucythrinate, (±)-cyano(3-phenoxyphenyl)methyl (+)-4-(difluoromethoxy-α-(1-methyl-ethyl)benzeneacetate]
- % Fly mortality - six days [3]: 77%
- % Fly mortality - six days [4]: 4%

SMILES: CCOP(=S)(OCC)Oc1nc(Cl)c(Cl)cc1Cl [Chlorpyrifos]
- LD50 [2, 5]: 0.3144-1.486 Micrograms/pyrethroid resistan

SMILES: O=S1OCC2C(CO1)C1(Cl)C(Cl)=C(Cl)C2(Cl)C1(Cl)Cl (centres unmarked) [Endosulfan]
- LD50 [2, 5]: 0.3518-0.5009 Micrograms/pyrethroid resistan

SMILES: COP(=S)(OC)Oc1ccc(Sc2ccc(OP(=S)(OC)OC)cc2)cc1 [Temephos]
- Onset of Decomposition [1]: 142 °C

SMILES: COP(=O)(OC)OC(Br)C(Cl)(Cl)Br (centres unmarked) [Dibrom, 1,2-Dibromo-2,2-dichloroethyl dimethyl phosphate]
- Onset of Decomposition [1]: 103 °C
- decomposition points as determined by differential scanning calorimetry [1]: < 160 °C

SMILES: CNC(=O)CSP(=S)(OC)OC [Dimethoate, O,O-dimethyl S-(N-methylcarbamoyl-methyl)phosphorodithioate]
- Onset of Decomposition [1]: 105 °C
- decomposition points as determined by differential scanning calorimetry [1]: < 160 °C

SMILES: Cc1cc(Cl)ccc1N=CN(C)C [Chlordimeform]
- LD50 [2, 5]: > 8.0 Micrograms/pyrethroid resistan

SMILES: CCCCOCCOCCOCc1cc2c(cc1CCC)OCO2 [Piperonyl butoxide]
- LD50 ([2]; in vivo): 2.725-3.7726

SMILES: COP(=S)(OC)Oc1ccc(S(=O)(=O)N(C)C)cc1 [Famphur]
- LD50 ([2]; in vivo): 0.1359-8.448

SMILES: CCOC(=O)CC(SP(=S)(OC)OC)C(=O)OCC (centres unmarked) [Malathion]
- LD50 [2, 5]: 4.4757-6.9321 Micrograms/pyrethroid resistan

SMILES: CNC(=O)ON=C(C)SC [Methomyl]
- LD50 [2, 5]: 0.5027-0.6807 Micrograms/pyrethroid resistan

SMILES: CCOP(=S)(OCC)Oc1cc(C)nc(C(C)C)n1 [Diazinon]
- LD50 ([2]; in vivo): 4.0626-6.2101

SMILES: CCOP(=O)(OCC)OC(=CCl)c1ccc(Cl)cc1Cl [Chlorfenvinphos, 2-Chloro-1-(2,4-dichlorophenyl)-vinyl diethyl phosphate]
- LD50 [2, 5]: 0.1869-0.2626 Micrograms/pyrethroid resistan
- Onset of Decomposition [1]: 157 °C
- decomposition points as determined by differential scanning calorimetry [1]: < 160 °C

Reference: patent US5104659A, “Compositions, devices and method for controlling insects” (priority 1984, dated 1992)
